The values below come from patent US20220041681A1 (MEDIMMUNE LIMITED, priority 2016, published 2022).

Molecules are shown by their SMILES.

Data set [1] can be described thus: Stability testing of peptides in plasma. To be noted: mouse, 24 h, 2 μmol/L. Format: in vitro ADME, mouse. As for the experimental part:
Stability testing of peptides in plasma.
Stock solutions of the peptides of about 200 μmol/L was prepared by weighing solid peptide into a Eppendorf Low Bind Tube and dissolved in DMSO. 10 μL of stock solutions were added to 990 μL of plasma in an Eppendorf Low Bind Tube, resulting in initial concentrations of the peptides in plasma of about 2 μmol/L. The frozen blank plasma from human, rat and mouse had been thawed and heated to a temperature of 37° C. before addition of the stock solution. The spiked plasma samples were gently mixed and allowed to equilibrate for about 5 minutes before start of experiment. The plasma samples were incubated for 48 hours in a GalaxyR CO2 incubator at 37° C. Sampling (30 μL) was performed at 0, 1, 2, 6.5, 17, 24 and 48 hours. The samples were stored at −70° C. until analysis.
Plasma samples were assayed as follows. The 30 μL plasma samples were protein precipitated with […] of cold ethanol in a 96-well low bind plate (Eppendorf Protein LoBind). After mixing and centrifugation, 100 μl the supernatant was transferred to a new plate and 1 μl was injected onto an analytical column.
The analysis was performed using a μLC-system (LC Exigent μLC) coupled to a medium high resolution mass spectrometer (Perkin Elmer PenTOF) with positive electrospray ionisation. The analytical column was a 5 cm, 1 mm Agilent Poroshell (custom made) C18-column with a particle size of 2.7 μm. Flow: 0.1 ml/min using a slow reversed phase gradient. Mobile phases used were acetonitrile and water containing 0.1% formic acid.
The resulting data were manually evaluated for the following degradation products: +1 product (acid) and the DPP IV-cleavage product. Products with +1 mass may arise from deamidation at amide groups of glutamine or at the C-terminus. Cleavage products arise from the action of the protease DPP IV in plasma. Both the degradation of the peptides and formation of peptide products were reported in percentage of the initial peptide concentration. Peaks were integrated and % remaining peptide was calculated: (peak area/peak area 0H)*100. […]

Data set [2] relates to overweight or obese subjects with type 2 diabetes mellitus (T2DM). To be noted: human, in vivo.
Procedure: A Phase 1/2, randomized, double-blind, multiple-ascending dose study is performed in two parts (A and B).
Part A consists of 3 cohorts.
Part B consists of 1 cohort.
The initial dose is 100 μg. […] The study duration for each subject varies by cohort and consists of an inpatient multiple-ascending dose (MAD) or up-titration evaluation period (beginning on Day −2 and ending after Day 8 for Cohort 1, Day 12 for Cohort 2, Day 16 for Cohort 3, and Day 13 for Cohort 4) and an outpatient follow-up period.
The subject remains in the facility for observation and safety tests including ECGs, telemetry, monitoring of vital signs, and assessments of the injection site for potential reactions throughout the day and during the treatment period.
Mixed-meal test (MMT) procedures are performed on Day −1 and on the last day of the highest dose level achieved for all cohorts. […] For the MMT, the subject consumes a standardized meal (Ensure Plus %) within 5 minutes, and timed serial blood samples are obtained for measurement of glucose and parameters related to glucose metabolism just before and through 240 minutes after consumption of the standandized meal. During the inpatient period, finger prick glucose samples are collected 15 minutes prior to and 2 hours after breakfast, mid-day, and evening meals, and prior to going to bed.
Cohort 4 subjects are re-admitted for an overnight inpatient stay at the end of the at-home self-administration period to collect the final endpoints.
Subjects are discharged from the unit the day after the final dose is administered in the study.
Missing measurements at the end of treatment are replaced with the last available measurement. The comparison is conducted at a two-sided significance level of 0.1.
A short description of data set [3]: Phase 1 single-ascending dose study. Particulars: human, plasma, subcutaneous, 300 μg.

For the compound `CCCCCCCCCCCCCCCC(=O)N[C@@H](CCC(=O)NCCCC[C@H](NC(=O)[C@H](CC(=O)O)NC(=O)[C@H](CO)NC(=O)C(NC(=O)[C@H](Cc1ccccc1)NC(=O)C(NC(=O)CNC(=O)[C@H](CCC(N)=O)NC(=O)[C@H](CO)NC(=O)[C@@H](N)Cc1cnc[nH]1)[C@@H](C)O)[C@@H](C)O)C(=O)N[C@@H](CO)C(=O)N[C@@H](CCC(=O)O)C(=O)N[C@@H](Cc1ccc(O)cc1)C(=O)N[C@@H](CC(C)C)C(=O)N[C@@H](CC(=O)O)C(=O)N[C@@H](CO)C(=O)N[C@@H](CCC(=O)O)C(=O)N[C@@H](CCCNC(=N)N)C(=O)N[C@@H](C)C(=O)N[C@@H](CCCNC(=N)N)C(=O)N[C@@H](CC(=O)O)C(=O)N[C@@H](Cc1ccccc1)C(=O)N[C@H](C(=O)N[C@@H](C)C(=O)N[C@@H](Cc1c[nH]c2ccccc12)C(=O)N[C@@H](CC(C)C)C(=O)N[C@@H](CCC(=O)O)C(=O)N[C@@H](C)C(=O)NCC(=O)NCC(=O)O)C(C)C)C(=O)O` (stereo partly drawn) [Peptide G933], the “% stable peptide” value in data set [1] worked out at 83%. Moreover, the half-life in data set [2] was 8 to 11 h. In data set [3], this compound had an area under the curve AUC(0-t) of 364 ng·h/mL.
